Results on 36 molecules are retold here after patent US12351570B2 (MERCK PATENT GMBH, priority 2018, dated 2025).

In the assay the test system is MDA-MB-231 cells. Kind of assay: Extracellular lactate production inhibition after 4 h, MDA-MB-231. The following applies: Homo sapiens, MDA-MB-231.
As for `CNc1cc(C#Cc2ccccc2NS(=O)(=O)c2ccc(OC)c3cccnc23)cnc1C(=O)O` [Compound 212, 5-{2-[2-(5-methoxyquinoline-8-sulfonamido)phenyl]ethynyl}-3-(methylamino)pyridine-2-carboxylic acid], the IC50 was in the range of 1 to 10 nM.

`O=C(O)c1ncc(C#Cc2ccccc2NS(=O)(=O)c2ccc3ccccc3c2)cc1F` [Compound 65, 3-fluoro-5-{2-[2-(naphthalene-2-sulfonamido)phenyl]ethynyl}pyridine-2-carboxylic acid] had an IC50 of 1000 to 100000 nM.

Take `COC(=O)c1ccc(C#Cc2ccccc2NS(=O)(=O)c2ccc(-n3cccn3)cc2)cn1` [Compound 133, methyl 5-(2-{2-[4-(1H-pyrazol-1-yl)benzenesulfonamido]phenyl}-ethynyl)pyridine-2-carboxylate]: the IC50 is 100 to 1000 nM.

Take `COc1cnc2cc(S(=O)(=O)Nc3ccccc3C#Cc3ccc(C(=O)O)nc3)ccc2n1` [Compound 91, 5-{2-[2-(2-methoxyquinoxaline-6-sulfonamido)phenyl]ethynyl}pyridine-2-carboxylic acid]: the IC50 lay within 1000 to 100000 nM.

Regarding `COc1ccc(S(=O)(=O)Nc2cc(Cl)ccc2C#Cc2ccc(C(=O)O)nc2)c2ncccc12` [Compound 199, 5-{2-[4-chloro-2-(5-methoxyquinoline-8-sulfonamido)phenyl]ethynyl}pyridine-2-carboxylic acid], the IC50 was 10 to 100 nM.

As for `Cc1cc(C(=O)O)ncc1C#Cc1cc(F)ccc1NS(=O)(=O)c1c(C)ccc2cccnc12` [Compound 148, 5-{2-[5-fluoro-2-(7-methylquinoline-8-sulfonamido)phenyl]ethynyl}-4-methylpyridine-2-carboxylic acid], the IC50 is 10 to 100 nM.

The molecule `COc1ccc(S(=O)(=O)Nc2ccccc2C#Cc2ccc(C(=O)O)c(C)c2)c2ccccc12` [Compound 18, 4-{2-[2-(4-methoxynaphthalene-1-sulfonamido)phenyl]ethynyl}-2-methylbenzoic acid] gave an IC50 of 100 to 1000 nM.

With `O=CN(Cc1ccccc1C#Cc1ccc(C(=O)O)nc1)c1ccc2ccccc2c1` [Compound 202, 5-[2-(2-{[N-(naphthalen-2-yl)formamido]methyl}phenyl)-ethynyl]pyridine-2-carboxylic acid], the IC50 lay within 10 to 100 nM.

`O=C(O)c1ccc(C#Cc2ccccc2NS(=O)(=O)c2cccc3c(Cl)c(Cl)cnc23)cn1` [Compound 298, 5-{2-[2-(3,4-dichloroquinoline-8-sulfonamido)phenyl]ethynyl}pyridine-2-carboxylic acid] registered an IC50 of 10 to 100 nM.

Turning to `Cc1cc(C(=O)O)ncc1C#Cc1ccccc1NS(=O)(=O)c1cccc2ccccc12` [Compound 88, 4-methyl-5-{2-[2-(naphthalene-1-sulfonamido)phenyl]ethynyl}pyridine-2-carboxylic acid], the IC50 fell in the range of 100 to 1000 nM.

Regarding `O=C(O)c1ccc(C#Cc2ccccc2NS(=O)(=O)c2ccc(-n3cccn3)cc2)cn1` [Compound 142, 5-(2-{2-[4-(1H-pyrazol-1-yl)benzenesulfonamido]phenyl}-ethynyl)pyridine-2-carboxylic acid], the IC50 was in the range of 100 to 1000 nM.

For `COc1cnc2cc(S(=O)(=O)Nc3ccccc3C#Cc3ccc(C(=O)O)cc3)ccc2n1` [Compound 82, 4-{2-[2-(2-methoxyquinoxaline-6-sulfonamido)phenyl]ethynyl}benzoic acid], the IC50 lay in the range of 1000 to 100000 nM.

On to `CS(=O)(=Nc1ccccc1C#Cc1ccc(C(=O)O)nc1)c1ccccc1` (stereo not drawn) [Compound 424, 5-[2-(2-{[methyl(oxo)phenyl-λ6-sulfanylidene]amino}phenyl)ethynyl] pyridine-2-carboxylic acid], for which the IC50 is 1000 to 100000 nM.

For the molecule `CCOc1ccc(S(=O)(=O)Nc2ccccc2C#Cc2cnc(C(=O)O)c3ccccc23)c2ncccc12` [Compound 442, 4-{2-[2-(5-ethoxyquinoline-8-sulfonamido)phenyl]ethynyl}iso-quinoline-1-carboxylic acid], the IC50 was 10 to 100 nM.

`CCNc1cc(C#Cc2ccccc2NS(=O)(=O)c2ccc(OC)c(C)c2C)cnc1C(=O)O` [Compound 379, 3-(ethylamino)-5-{2-[2-(4-methoxy-2,3-dimethylbenzenesulfonamido)phenyl]ethynyl}pyridine-2-carboxylic acid] gave a 50% inhibitory concentration (IC50) of 10 to 100 nM.

`O=C(O)c1ccc(C#Cc2ccccc2NS(=O)(=O)c2cc3ccccc3o2)cc1` [Compound 73, 4-{2-[2-(1-benzofuran-2-sulfonamido)phenyl]ethynyl}benzoic acid] yielded an IC50 of 100 to 1000 nM.

As to `Cc1cc(C)c2cccnc2c1S(=O)(=O)Nc1ccccc1C#Cc1ccc(C(=O)O)nc1` [Compound 381, 5-{2-[2-(5,7-dimethylquinoline-8-sulfonamido)phenyl]ethynyl}pyridine-2-carboxylic acid], the IC50 lay in the range of 10 to 100 nM.

In turn, `COc1ccc(S(=O)(=O)Nc2ccccc2C#Cc2ccc(C(=O)O)nc2C)c2ncccc12` [Compound 130, 5-{2-[2-(5-methoxyquinoline-8-sulfonamido)phenyl]ethynyl}-6-methylpyridine-2-carboxylic acid] yielded an IC50 of 1000 to 100000 nM.

For `O=C(O)c1ccc(C#Cc2ccccc2NS(=O)(=O)c2ccc(OC(F)(F)F)c3cccnc23)cn1` [Compound 384, 5-[2-(5-Trifluoromethoxy-quinoline-8-sulfonylamino)-phenylethynyl]-pyridine-2-carboxylic acid], the IC50 was in the range of 10 to 100 nM.

`COc1cc(C#Cc2ccccc2NS(=O)(=O)c2ccc(OC)c3cccnc23)ccc1C(=O)O` [Compound 230, 2-methoxy-4-{2-[2-(5-methoxyquinoline-8-sulfonamido)phenyl]ethynyl}benzoic acid] came in with an IC50 of 100 to 1000 nM.

`O=C(O)c1ccc(C#Cc2ccccc2NS(=O)(=O)c2cccc3ccccc23)cn1` [Compound 70, 5-{2-[2-(naphthalene-1-sulfonamido)phenyl]ethynyl}pyridine-2-carboxylic acid]: the IC50 was in the range of 100 to 1000 nM.

On to `COc1ccc(S(=O)(=O)Nc2ccccc2C#Cc2ccc(C(=O)O)nc2)c(C)c1C` [Compound 42, 5-{2-[2-(4-methoxy-2,3-dimethylbenzenesulfonamido)phenyl]-ethynyl}pyridine-2-carboxylic acid], for which the IC50 lay in the range of 100 to 1000 nM.

In turn, `Cc1cc(C#Cc2ccccc2N(C=O)Cc2ccc(-c3ccccc3)cc2)cnc1C(=O)O` [Compound 194, 5-(2-{2-[N-({[1,1′-biphenyl]-4-yl}methyl)formamido]phenyl}ethynyl)-3-methylpyridine-2-carboxylic acid] displayed an IC50 of 100 to 1000 nM.

`CC(C)Oc1ccc2cccnc2c1S(=O)(=O)Nc1ccccc1C#Cc1ccc(C(=O)O)nc1` [Compound 211, 5-(2-{2-[7-(propan-2-yloxy)quinoline-8-sulfonamido]phenyl}ethynyl)pyridine-2-carboxylic acid] gave an IC50 of 10 to 100 nM.

Take `Cc1cc(C#Cc2ccccc2N(C=O)Cc2ccc3ccccc3c2)cnc1C(=O)O` [Compound 195, 3-methyl-5-[2-(2-{N-[(naphthalen-2-yl)methyl]formamido}phenyl)ethynyl]-pyridine-2-carboxylic acid]: the IC50 was 100 to 1000 nM.

In the case of `O=C(O)c1ccc(C#Cc2ccccc2NS(=O)(=O)c2c(Cl)cc(Cl)c3cccnc23)cn1` [Compound 306, 5-{2-[2-(5,7-dichloroquinoline-8-sulfonamido)phenyl]ethynyl}pyridine-2-carboxylic acid], the IC50 is 10 to 100 nM.

`Cc1cc(C(=O)O)ncc1C#Cc1ccccc1NS(=O)(=O)c1ccc2c(c1)Cc1ccccc1-2` [Compound 119, 5-{2-[2-(9H-fluorene-2-sulfonamido)phenyl]ethynyl}-4-methylpyridine-2-carboxylic acid] showed an IC50 of 100 to 1000 nM.

In turn, `CNc1ccnc2c(S(=O)(=O)Nc3ccccc3C#Cc3ccc(C(=O)O)nc3)cccc12` [Compound 423, 5-[2-(4-Methylamino-quinoline-8-sulfonylamino)-phenylethynyl]-pyridine-2-carboxylic acid] had an IC50 of 1000 to 100000 nM.

In the case of `CCOc1ccc(S(=O)(=O)Nc2ccccc2C#Cc2ccc(C(=O)O)nc2)c2ccccc12` [Compound 284, 5-{2-[2-(4-ethoxynaphthalene-1-sulfonamido)phenyl]ethynyl}pyridine-2-carboxylic acid], the IC50 lay within 10 to 100 nM.

In turn, `COc1ccc(S(=O)(=O)Nc2ccccc2C#Cc2cnc(C(=O)O)c(N)c2)c(C)c1C` [Compound 402, 3-amino-5-{2-[2-(4-methoxy-2,3-dimethylbenzenesulfonamido)phenyl]ethynyl}pyridine-2-carboxylic acid] gave an IC50 of 10 to 100 nM.

Molecule `COc1ccc(S(C)(=O)=Nc2ccccc2C#Cc2cnc(C(=O)O)c3ccccc23)cc1` (stereo not drawn) [Compound 449, 4-[2-(2-{[(4-methoxyphenyl)(methyl)oxo-λ6-sulfanylidene]amino}phenyl)ethynyl]-isoquinoline-1-carboxylic acid] yielded a half-maximal inhibitory concentration (IC50) of 1000 to 100000 nM.

`COc1ccc(S(=O)(=O)Nc2ccc(Br)cc2C#Cc2ccc(C(=O)N(C)C)nc2)c2ncccc12` [Compound 238, 5-{2-[5-bromo-2-(5-methoxyquinoline-8-sulfonamido)phenyl]ethynyl}-N,N-dimethylpyridine-2-carboxamide] came in with an IC50 of 1000 to 100000 nM.

Regarding `O=C(O)c1ccc(C#Cc2ccccc2NC(=O)N2CCCc3cccnc32)cn1` [Compound 151, 5-(2-{2-[(1,2,3,4-tetrahydro-1,8-naphthyridine-1-carbonyl)amino]phenyl}-ethynyl)pyridine-2-carboxylic acid], the IC50 lay within 100 to 1000 nM.

In turn, `COc1ccc(S(=O)(=O)Nc2ccccc2C#Cc2ccc(C(=O)O)c(F)c2)c2ccccc12` [Compound 45, 2-fluoro-4-{2-[2-(4-methoxynaphthalene-1-sulfonamido)phenyl]ethynyl}benzoic acid] had an IC50 of 100 to 1000 nM.

For the molecule `Cc1cc(C#Cc2ccccc2NS(=O)(=O)N2CCC[C@@H]3CCCC[C@H]32)cnc1C(=O)O` [Compound 225, 5-[2-(2-{[(4a,8a-trans)-decahydro-quinoline-1-sulfonyl]amino}phenyl)-ethynyl]-3-methylpyridine-2-carboxylic acid], the half-maximal inhibitory concentration (IC50) lay in the range of 10 to 100 nM.

Molecule `Cc1ccc2cccnc2c1S(=O)(=O)Nc1cc(Br)ccc1C#Cc1ccc(C(=O)O)nc1` [Compound 186, 5-{2-[4-bromo-2-(7-methylquinoline-8-sulfonamido)phenyl]ethynyl}pyridine-2-carboxylic acid] registered an IC50 of 100 to 1000 nM.
